From US20260265703A1, “DEGRON FUSION PROTEINS AND METHODS OF PRODUCTION AND USE THEREOF” (BlueRock Therapeutics LP, priority 2023, published 2026)

Legend:
[1] = system: dopaminergic (DA) neurons differentiated from gene-edited iPSC clones (degron linked to GAPDH); test: Annexin V Incucyte cell death of DA neurons differentiated from gene-edited iPSCs; format: cell-based
Procedure: (§1) In order to determine the applicability of the degron-comprising targeting constructs to differentiated cells, unedited parental iPSCs and gene-edited iPSC clones B and C were differentiated into dopaminergic (DA) neurons as depicted in FIG. 13. The differentiation protocol was adapted from Kriks et al., 2011, Nature 480 (7378): 547-551 and U.S. Pat. No. 10,711,243, which are hereby incorporated by reference in their entireties. Cell death was assessed post-thaw after cells were plated down in the presence and absence of various concentrations of POM. Annexin V dye was used to quantify cell death in an Incucyte imager over a period of 5 days.
(§2) Cells were differentiated from iPSCs into DA neurons using the same protocol as depicted in FIG. 13. DA neurons were plated and stained with Annexin V dye and cell death was measured using an Incucyte Imager over a period of 144 hours.

[2] = system: myeloid progenitor (MP) cells differentiated from biallelically gene-edited iPSC clones A, B, and C; test: AO/PI Incucyte cell death of myeloid progenitor cells differentiated from gene-edited iPSCs; format: cell-based; details: 1 μM POM, 108 hours
From the text: (§3) To expand the applicability of the degron-comprising constructs to additional differentiated cell types, unedited parental iPSCs and biallelically gene-edited iPSC clones A, B, and C comprising targeting construct as depicted in FIG. 7G were differentiated into myeloid progenitor (MP) cells as depicted in FIG. 17. The differentiation protocol was adapted from Douvaras et al., 2017 Jun. 6; 8 (6): 1516-1524 and PCT publication nos. WO 2023/150089 A1 and WO 2017/152081 A1, which are hereby incorporated by reference in their entireties. Cell death was assessed post-thaw after MP cells were plated down in the presence and absence of POM. Acridine Orange/Propidium Iodine (AO/PI) dye was used to quantify cell death in an Incucyte Imager over a period of 108 hours.

[3] = system: DA neurons derived from unedited parental iPSCs; test: Annexin V Incucyte cell death of DA neurons derived from unedited parental iPSCs; format: cell-based
Procedure: as §1, §2

[4] = system: gene-edited iPSC clones (degron or superdegron linked to GAPDH); format: cell-based
[5] = system: GAPDH expression; test: qPCR of GAPDH expression in gene-edited iPSC clones; format: cell-based; details: 3 μM POM for up to 3 days; three degron clones and one superdegron clone
[6] = target: degron-fused GAPDH protein (Homo sapiens, UniProt P04406+Q96SW2); details: one day treatment with 3 μM POM; degron and superdegron iPSC clones
degron-fused GAPDH protein, sequence (P04406 other isoform, or with tags, fused parts or gaps): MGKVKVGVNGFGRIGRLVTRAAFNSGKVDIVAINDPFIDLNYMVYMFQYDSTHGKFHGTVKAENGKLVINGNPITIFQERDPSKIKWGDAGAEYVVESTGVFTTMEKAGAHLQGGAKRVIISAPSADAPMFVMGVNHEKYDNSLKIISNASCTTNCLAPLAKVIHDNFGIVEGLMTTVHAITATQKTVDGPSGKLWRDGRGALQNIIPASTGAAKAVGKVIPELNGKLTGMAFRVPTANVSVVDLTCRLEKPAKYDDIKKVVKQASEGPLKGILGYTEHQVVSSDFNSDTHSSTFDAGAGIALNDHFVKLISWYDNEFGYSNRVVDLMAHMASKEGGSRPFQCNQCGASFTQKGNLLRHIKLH
degron-fused GAPDH protein, sequence (Q96SW2 whole entry, the tested form may be a part): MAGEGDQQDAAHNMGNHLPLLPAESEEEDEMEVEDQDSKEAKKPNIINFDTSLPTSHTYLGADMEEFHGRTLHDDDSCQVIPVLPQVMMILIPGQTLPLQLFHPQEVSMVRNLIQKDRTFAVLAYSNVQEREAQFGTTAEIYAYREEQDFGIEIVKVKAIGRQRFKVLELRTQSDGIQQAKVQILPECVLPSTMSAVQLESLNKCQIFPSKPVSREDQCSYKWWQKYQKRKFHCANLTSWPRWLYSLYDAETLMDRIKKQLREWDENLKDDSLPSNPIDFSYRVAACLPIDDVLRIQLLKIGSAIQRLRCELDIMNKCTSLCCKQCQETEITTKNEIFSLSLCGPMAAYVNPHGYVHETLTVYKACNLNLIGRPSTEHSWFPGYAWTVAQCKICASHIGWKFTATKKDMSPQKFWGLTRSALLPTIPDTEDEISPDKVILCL
degron-fused GAPDH protein, sequence (Q16531 whole entry, further chain, the tested form may be a part): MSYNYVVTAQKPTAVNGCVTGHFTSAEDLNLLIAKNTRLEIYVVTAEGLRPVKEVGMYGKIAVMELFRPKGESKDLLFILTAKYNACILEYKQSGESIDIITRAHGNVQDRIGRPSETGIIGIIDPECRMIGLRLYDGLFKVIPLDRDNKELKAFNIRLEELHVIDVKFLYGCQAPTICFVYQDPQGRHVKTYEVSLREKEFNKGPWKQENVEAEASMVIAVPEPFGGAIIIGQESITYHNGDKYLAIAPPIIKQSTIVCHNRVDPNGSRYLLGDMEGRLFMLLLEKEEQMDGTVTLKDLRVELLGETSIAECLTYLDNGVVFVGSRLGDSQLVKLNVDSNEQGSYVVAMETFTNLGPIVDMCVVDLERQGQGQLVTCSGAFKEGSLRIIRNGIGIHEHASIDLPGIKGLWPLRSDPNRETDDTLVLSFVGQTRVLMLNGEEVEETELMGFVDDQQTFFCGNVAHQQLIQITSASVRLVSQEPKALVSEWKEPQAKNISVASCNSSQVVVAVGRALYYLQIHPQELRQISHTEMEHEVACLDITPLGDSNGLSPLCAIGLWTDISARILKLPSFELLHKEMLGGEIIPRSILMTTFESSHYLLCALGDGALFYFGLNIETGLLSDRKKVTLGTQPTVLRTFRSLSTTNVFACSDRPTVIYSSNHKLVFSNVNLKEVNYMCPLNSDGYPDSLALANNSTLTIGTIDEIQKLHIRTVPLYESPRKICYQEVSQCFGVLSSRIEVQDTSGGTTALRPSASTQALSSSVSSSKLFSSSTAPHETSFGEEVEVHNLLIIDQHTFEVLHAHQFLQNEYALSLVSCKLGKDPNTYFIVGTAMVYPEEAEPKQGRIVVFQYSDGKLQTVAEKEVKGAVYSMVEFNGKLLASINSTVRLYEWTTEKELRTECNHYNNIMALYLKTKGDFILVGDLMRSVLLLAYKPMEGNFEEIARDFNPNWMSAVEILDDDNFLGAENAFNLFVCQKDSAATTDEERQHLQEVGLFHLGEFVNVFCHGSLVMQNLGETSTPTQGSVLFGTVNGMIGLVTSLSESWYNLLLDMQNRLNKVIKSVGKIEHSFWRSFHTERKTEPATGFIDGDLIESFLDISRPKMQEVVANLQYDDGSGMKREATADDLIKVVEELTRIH
Procedure: To determine whether gene-editing of iPSCs with a targeting construct, wherein the homology arms of which enable its integration in the endogenous GAPDH locus, affects the expression of GAPDH, three clones bi-allelically modified with a targeting construct comprising a 3 aa linker, GGS and a degron (as depicted in FIG. 7G) and one clone bi-allelically modified with superdegron-comprising targeting construct (as depicted in FIG. 7J) were treated with 3 μM POM for up to 3 days.

[7] = system: unedited cells (GFP-negative) iPSCs; test: Effect of POM on unedited cells in the mixture with gene-edited iPSCs; format: cell-based; details: 3 μM POM for 6d; heterogenous mixture
Procedure: (§4) Functionality of the kill switch was tested in iPSCs using the targeting construct depicted in FIG. 7G, which comprises a linker, a degron sequence, an IRES, and a GFP transgene sequence flanked by GAPDH homology arms. On the day of Nucleofection, iPSCs were harvested and resuspended in Lonza P3 primary cell nucleofection buffer. Ribonucleoproteins (RNPs) were complexed with sgRNAs using 1:2 ratio of protein:sgRNA (IDT). Nucleofection of complexed RNP together with a targeting construct into resuspended iPSCs was accomplished using LONZA 4D Nucleofector. The Nucleofected cells were then plated and assessed for targeting events.
(§5) A heterogenous mixture of unedited cells (GFP-negative) and cells edited with a construct depicted in FIG. 7G, comprising a degron fused to GAPDH as well as GFP (GFP-positive) were treated with 3 μM pomalidomide (POM) for 6d or fed with complete medium without POM (untreated).

[8] = system: unedited parental cells (iPSCs); test: Growth of unedited parental iPSCs under POM; format: cell-based; details: 0.5 μM POM for 5 days
Procedure: The same gene-edited iPSC clones in Example 4 were treated with 0.5 μM POM for 5 days to determine if there were any differences between the survival rates.

[9] = system: iPSC clone bi-allelically modified with a degron fused to GAPDH and IRES-GFP; test: Incucyte live cells/well of a bi-allelically modified iPSC clone under POM; format: cell-based; details: 1 μM POM
From the text: The percentage of live cells/well was quantified at several timepoints using the Incucyte software and normalized for the number of live cells/well at the first image timepoint.

[10] = system: iPSCs transfected with degron or superdegron GAPDH targeting constructs; test: Linker length: amplicon depletion after POM relative to untreated cells; format: cell-based; details: 3 μM POM; construct with 3 aa linker and degron
From the text: (§6) Two sets of targeting constructs were generated as described in Section 8.1. The first set of targeting constructs were designed to comprise a linker, a degron or superdegron sequence, an IRES sequence, and a GFP transgene sequence flanked by GAPDH homology arms as depicted in FIGS. 7G-7J, wherein the linker lengths were 3 aa (linker 1, GGS), 15 aa (linker 2, SEQ ID NO:23), 27 aa (linker 3, SEQ ID NO:103) and 10 aa (linker 4, SEQ ID NO:15). The second set of targeting constructs were designed to comprise a linker and a degron or superdegron sequence flanked by GAPDH homology arms as depicted in FIGS. 7A-7D. For both sets, the homology arms were designed to enable integration of the construct in the endogenous GAPDH locus, immediately 5′ of the GAPDH endogenous STOP codon. iPSCs were transfected with each construct individually.
Next, the iPSCs transfected with the second set of targeting constructs were evaluated, wherein amplicon depletion was assessed following POM treatment relative to untreated cells. […] Taken together, targeting construct linker length and degron type might be key factors to trigger cell death in gene-edited cells.

[11] = system: pool of iPSCs transfected with degron or superdegron GAPDH IRES-GFP targeting constructs; test: Linker length: flow cytometry of GFP signal depletion in transfected iPSC pools; format: cell-based; details: 3 μM POM for 4 days
From the text: as §6
A pool of iPSCs transfected with the first set of targeting constructs, potentially comprising both mono-allelically and bi-allelically gene edited iPSCs, were evaluated using flow cytometry, wherein the depletion of GFP signal was assessed following treatment with 3 μM POM for 4 days. Among gene-edited iPSCs, those that were transfected with the superdegron-comprising targeting construct had the lowest percentage of GFP-positive cells, whereas approximately ⅓ to ½ of […] cells transfected with one of the degron-comprising targeting constructs were GFP-positive.

[12] = system: myeloid progenitor (MP) cells differentiated from unedited parental iPSCs; test: AO/PI Incucyte cell death of myeloid progenitor cells from unedited parental iPSCs; format: cell-based; details: 1 μM POM; 108 hours
From the text: as §3

[13] = system: iPSCs edited with a construct comprising a degron fused to GAPDH as well as GFP (GFP-positive); test: Depletion of GFP-positive gene-edited iPSCs in a mixture with unedited cells after POM; format: cell-based; details: 3 μM POM for 6d; heterogenous mixture; FIG. 7G construct
Procedure: as §4, §5

## Nc1cccc2c1C(=O)N(C1CCC(=O)NC1=O)C2=O (stereo not shown) [POM, pomalidomide]
[1]; Clone A or Clone C, by 144 hours, range 0.01 μM to 100 μM
  POM concentration giving nearly complete cell death: 0.1 µM
[1]; DA neurons derived from clone B, 5-day treatment
  POM concentration giving complete killing (lowest concentration evaluated): 10 nM
[1]; clone B and clone C, by day 5, 0.13 μM-1 μM POM
  death of neurons at all POM concentrations evaluated: complete death of all neurons
[2]
  cell death of gene-edited MP clones: died in response to POM
[3]; 0.01 μM to 100 μM POM, 144 hours
  cell death at any POM concentration tested: No differences in cell death
[3]; various POM concentrations, 5 days
  neuronal death with vs without POM: No differences in neuronal death
[4]; 0.5 μM POM for 5 days, degron and superdegron clones of Example 4
  killing of gene-edited iPSCs: complete killing of all gene-edited iPSCs
[4]; degron construct, monitored 5 days, range 0.03125 μM to 10 μM
  POM concentration sufficient to achieve complete killing: 0.5 µM
[4]; degron construct, monitored 5 days, range 0.03125 μM to 10 μM, data not shown
  POM concentration able to trigger apoptosis: 0.25 µM
[4]; superdegron construct, monitored 5 days
  lowest POM concentration evaluated, associated with apoptosis of all cells: 0.03125 µM
[5]
  GAPDH expression by qPCR, untreated vs POM-treated gene-edited cells: No large differences in GAPDH expression
[6]
  GAPDH protein by western blot: completely depleted
[7]
  effect on unedited cells: did not affect unedited cells
[8]
  growth of unedited parental cells: did not affect the growth of unedited parental cells
[9]; 92 hours after addition
  elimination of gene edited cells: completely eliminated
[9]; bi-allelic FIG. 7G clone, Incucyte
  time after addition of POM at which cell death rate surpassed proliferation rate: around 24 hours
[10]
  amplicon depletion relative to untreated cells: associated with amplicon depletion
[11]; degron construct with the shortest linker (3 aa, GGS)
  depletion of GFP-positive cells: depleted GFP-positive cells
[11]; degron constructs with 15 aa and 27 aa linkers (no depletion implied)
  depletion of GFP-positive cells: only if they were transfected with the degron-comprising targeting construct with the shortest linker or the superdegron-comprising targeting construct
[11]; superdegron construct (10 aa linker)
  depletion of GFP-positive cells: depleted GFP-positive cells
[12]
  cell death of unedited parental MP line: no increase in cell death
[13]
  effect on the population of edited GFP-positive cells: depleted the population of edited GFP-positive cells
